Our source for the class values is US20050197350A1, “Novel quinoline, tetrahydroquinazoline, and pyrimidine derivatives and methods of treatment related to the use thereof” (TAISHO PHARMACEUTICAL CO., LTD., priority 2003, published 2005).

The structures appear in SMILES notation.

The first assay has as its system MCH receptors. In words: MCH receptor activity class (method not given).
Settings: not given
Regarding `Cc1cccc(CNC(=O)[C@H]2CC[C@@H](Nc3nc(C)cc(N(C)C)n3)CC2)c1` [Example 2586, cis-4-{[4-(dimethylamino)-6-methylpyrimidin-2-yl]amino}-N-(3-methylbenzyl)cyclohexanecarboxamide], the class worked out at 1.

Still in this assay, the particulars now being: MCH receptor activity class 1-3 (percent of control at 10^-7 M or IC50).
As to `CN(C)c1ccnc(N[C@H]2CC[C@@H](CNC(=O)NCc3ccccc3Cl)CC2)n1` [compound 2421], the class is on record as 3 (Class 3 The value of percent of control at 10^−7 M was more than 60% or the value of IC50 was more than 200 nM.).
On the same count and under the same terms, for `CN(C)c1cc(N[C@H]2CC[C@@H](CNC(=O)Nc3c(F)cc(Br)cc3Br)CC2)nc2ccccc12` [compound 2371, N-(2,4-dibromo-6-fluorophenyl)-N′-[(cis-4-{[4-(dimethylamino)quinolin-2-yl]amino}cyclohexyl)methyl]urea] the value was 1 (Class 1: The value of percent of control at 10^−7 M was less than 40% or the value of IC50 was less than 50 nM.).
Still for that read-out and setting: for `CN(C)c1cc(N[C@H]2CC[C@@H](NC(=S)NCc3cccc(Cl)c3)CC2)nc2ccccc12` [compound 2292] the value was 3 (Class 3 The value of percent of control at 10^−7 M was more than 60% or the value of IC50 was more than 200 nM.).

The assay is the same for the next values; noted with them: MCH receptor; class by percent of control at 10^-7 M or IC50.
For the molecule `CN(C)c1cc(N[C@H]2CC[C@@H](NC(=O)COc3ccccc3)CC2)nc2ccccc12` [compound 112, N-(cis-4-{[4-(dimethylamino)quinolin-2-yl]amino}cyclohexyl)-2-phenoxyacetamide], the class is on record as 1 (Class 1: The value of percent of control at 10^−7 M was less than 40% or the value of IC50 was less than 50 nM.).
Still for that read-out and setting: the same measure for `CN(C)c1nc(N[C@H]2CC[C@@H](NC(=S)NC3CCCCC3)CC2)nc2c1CCCC2` [compound 1931]: 3 (Class 3 The value of percent of control at 10^−7 M was more than 60% or the value of IC50 was more than 200 nM.); for `COc1cc(OC)cc(C(=O)NC[C@H]2CC[C@@H](Nc3cc(N(C)C)c4ccccc4n3)CC2)c1` [compound 203, N-[(cis-4-{[4-(dimethylamino)quinolin-2-yl]amino}cyclohexyl)methyl]-3,5-dimethoxybenzamide]: 3 (Class 3 The value of percent of control at 10^−7 M was more than 60% or the value of IC50 was more than 200 nM.).

The assay is the same for the next values; noted with them: activity class 1-3: percent of control at 10^-7 M or IC50.
Regarding `COC(=O)NC[C@H]1CC[C@@H](Nc2cc(N(C)C)c3ccccc3n2)CC1` [compound 1575], the class is listed as 3 (Class 3 The value of percent of control at 10^−7 M was more than 60% or the value of IC50 was more than 200 nM.).
The same measure, in the same setting: for `CCCCCCCCOC(=O)NC[C@H]1CC[C@@H](Nc2nc3c(c(N(C)C)n2)CCCC3)CC1` [compound 1606] the value was 3 (Class 3 The value of percent of control at 10^−7 M was more than 60% or the value of IC50 was more than 200 nM.).
On the same count and under the same terms, for `COc1cc2ccccc2cc1CN[C@H]1CC[C@@H](Nc2nccc(N(C)C)n2)CC1` [compound 1522] the value was 3 (Class 3 The value of percent of control at 10^−7 M was more than 60% or the value of IC50 was more than 200 nM.).
Same read-out and setting: the same measure for `COc1ccccc1CCNC[C@H]1CC[C@@H](Nc2nccc(N(C)C)n2)CC1` [compound 1531]: 3 (Class 3 The value of percent of control at 10^−7 M was more than 60% or the value of IC50 was more than 200 nM.).

The same assay, now with this note: activity class per percent of control at 10^-7 M or IC50.
As to `CN(C)c1cc(N[C@H]2CC[C@@H](NCc3ccc(F)c(Cl)c3)CC2)nc2ccccc12` [compound 1121], the class is given as 3 (Class 3 The value of percent of control at 10^−7 M was more than 60% or the value of IC50 was more than 200 nM.).

Still in this assay, the particulars now being: class 1-3 by percent of control at 10^-7 M or IC50.
Turning to `Cc1ccc(Cl)c(C(=O)NC[C@H]2CC[C@@H](Nc3nccc(N(C)C)n3)CC2)c1F` [compound 453], the class was 3 (Class 3 The value of percent of control at 10^−7 M was more than 60% or the value of IC50 was more than 200 nM.).
Still for that read-out and setting: the same measure for `CN(C)c1nc(N[C@H]2CC[C@@H](NC(=O)c3ccc4ccccc4c3)CC2)nc2c1CCCC2` [compound 546]: 3 (Class 3 The value of percent of control at 10^−7 M was more than 60% or the value of IC50 was more than 200 nM.).
On the same count and under the same terms, the same measure for `CN(C)c1nc(N[C@H]2CC[C@@H](NC(=O)C3CCCCC3)CC2)nc2c1CCCC2` [compound 533]: 3 (Class 3 The value of percent of control at 10^−7 M was more than 60% or the value of IC50 was more than 200 nM.).

Staying with this assay, now noted: class by percent of control at 10^-7 M or IC50.
Consider `CN(C)c1cc(N[C@H]2CC[C@@H](NC(=O)Cc3ccc(Oc4ccccc4)cc3)CC2)nc2ccccc12` [compound 728], for which the class was 3 (Class 3 The value of percent of control at 10^−7 M was more than 60% or the value of IC50 was more than 200 nM.).
Still for that read-out and setting: for `Cc1cc(C(=O)NC[C@H]2CC[C@@H](Nc3nc4c(c(N(C)C)n3)CCCC4)CC2)nn1C(C)(C)C` [compound 652] the value was 3 (Class 3 The value of percent of control at 10^−7 M was more than 60% or the value of IC50 was more than 200 nM.); for `COc1cc(CC(=O)N[C@H]2CC[C@@H](Nc3nccc(N(C)C)n3)CC2)cc(OC)c1` [compound 841], 3 (Class 3 The value of percent of control at 10^−7 M was more than 60% or the value of IC50 was more than 200 nM.); for `C[C@@H](NC(=O)c1ccccc1C(=O)N[C@H]1CC[C@@H](Nc2nccc(N(C)C)n2)CC1)c1cccc2ccccc12` [compound 877, N-(cis-4-{[4-(dimethylamino)pyrimidin-2-yl]amino}cyclohexyl)-N′-[(1R)-1-(1-naphthyl)ethyl]phthalamide], 2 (Class 2: The value of percent of control at 10^−7 M was from 40% to 60% or the value of IC′50 was from 50 nM to 200 nM.).
Still for that read-out and setting: for `CN(C)c1nc(N[C@H]2CC[C@@H](NC(=O)Nc3c(Cl)cccc3Cl)CC2)nc2c1CCCC2` [compound 1800] the value was 3 (Class 3 The value of percent of control at 10^−7 M was more than 60% or the value of IC50 was more than 200 nM.); for `CC(=O)c1ccc(NC(=O)N[C@H]2CC[C@@H](Nc3nc4c(c(N(C)C)n3)CCCC4)CC2)cc1` [compound 1808], 3 (Class 3 The value of percent of control at 10^−7 M was more than 60% or the value of IC50 was more than 200 nM.).
Take `CN(C)c1ccnc(N[C@H]2CC[C@@H](NC(=O)c3cc(C(C)(C)C)nn3Cc3ccccc3)CC2)n1` [compound 303]: the class is 2 (Class 2: The value of percent of control at 10^−7 M was from 40% to 60% or the value of IC′50 was from 50 nM to 200 nM.).
On to `CN(C)c1cc(N[C@H]2CC[C@@H](CNCc3cc(F)cc(C(F)(F)F)c3)CC2)nc2ccccc12` [compound 1198], for which the class is reported as 3 (Class 3 The value of percent of control at 10^−7 M was more than 60% or the value of IC50 was more than 200 nM.).
Still for that read-out and setting: for `CN(C)c1cc(N[C@H]2CC[C@@H](CNC(=O)C(c3ccc(Cl)cc3)c3ccc(Cl)cc3)CC2)nc2ccccc12` [compound 800, 2,2-bis(4-chlorophenyl)-N-[(cis-4-{[4-(dimethylamino)quinolin-2-yl]amino}cyclohexyl)methyl]acetamide] the value was 3 (Class 3 The value of percent of control at 10^−7 M was more than 60% or the value of IC50 was more than 200 nM.); for `Cc1ccc(CNC[C@H]2CC[C@@H](Nc3nccc(N(C)C)n3)CC2)s1` [compound 1301], 3 (Class 3 The value of percent of control at 10^−7 M was more than 60% or the value of IC50 was more than 200 nM.).
Still for that read-out and setting: the same measure for `Cc1c(C(=O)N[C@H]2CC[C@@H](Nc3cc(N(C)C)c4ccccc4n3)CC2)cc(-c2ccccc2)n1CCCN1CCOCC1` [compound 724]: 3 (Class 3 The value of percent of control at 10^−7 M was more than 60% or the value of IC50 was more than 200 nM.).
Regarding `CN(C)c1nc(N[C@H]2CC[C@@H](NC(=O)Nc3ccc(F)cc3[N+](=O)[O-])CC2)nc2c1CCCC2` [compound 1889], the class is given as 3 (Class 3 The value of percent of control at 10^−7 M was more than 60% or the value of IC50 was more than 200 nM.).
As for `Cc1ccc(C(=O)c2ccccc2C(=O)N[C@H]2CC[C@@H](Nc3nccc(N(C)C)n3)CC2)cc1` [compound 898], the class is recorded as 3 (Class 3 The value of percent of control at 10^−7 M was more than 60% or the value of IC50 was more than 200 nM.).
Take `CCOc1ccc(NC(=O)N[C@H]2CC[C@@H](Nc3nc4c(c(N(C)C)n3)CCCC4)CC2)cc1` [compound 1888]: the class is 3 (Class 3 The value of percent of control at 10^−7 M was more than 60% or the value of IC50 was more than 200 nM.).
Same read-out and setting: for `COc1cccc(CNC[C@H]2CC[C@@H](Nc3nc4c(c(N(C)C)n3)CCCC4)CC2)c1O` [compound 1438] the value was 3 (Class 3 The value of percent of control at 10^−7 M was more than 60% or the value of IC50 was more than 200 nM.); for `COc1ccc(Br)cc1CNC[C@H]1CC[C@@H](Nc2nc3c(c(N(C)C)n2)CCCC3)CC1` [compound 1387], 3 (Class 3 The value of percent of control at 10^−7 M was more than 60% or the value of IC50 was more than 200 nM.).

The assay is the same for the next values; noted with them: class by percent of control at 10^−7 M or IC50.
As for `Cc1cnc(N[C@H]2CC[C@@H](NC(=O)c3cccc(C(F)(F)F)c3)CC2)nc1N(C)C` [compound 2896, N-(cis-4-{[4-(dimethylamino)-5-methylpyrimidin-2-yl]amino}cyclohexyl)-3-(trifluoromethyl)benzamide], the class is given as 1 (Class 1: The value of percent of control at 10^−7 M was less than 40% or the value of IC50 was less than 50 nM.).
Turning to `Cc1cc(N(C)C)nc(N[C@H]2CC[C@@H](C(=O)NCc3ccc(F)cc3)CC2)n1` [compound 2799, cis-4-{[4-(dimethylamino)-6-methylpyrimidin-2-yl]amino}-N-(4-fluorobenzyl)cyclohexanecarboxamide], the class was 2 (Class 2: The value of percent of control at 10^−7 M was from 40% to 60% or the value of IC′50 was from 50 nM to 200 nM.).
Still for that read-out and setting: the same measure for `Cc1cnc(N[C@H]2CC[C@@H](NC(=O)c3ccc(F)c(F)c3F)CC2)nc1N(C)C` [compound 2903, N-(cis-4-{[4-(dimethylamino)-5-methylpyrimidin-2-yl]amino}cyclohexyl)-2,3,4-trifluorobenzamide]: 1 (Class 1: The value of percent of control at 10^−7 M was less than 40% or the value of IC50 was less than 50 nM.); for `Cc1cc(N(C)C)nc(NC[C@H]2CC[C@@H](NC(=O)c3ccc4c(c3)OC(F)(F)O4)CC2)n1` [compound 2750]: 3 (Class 3 The value of percent of control at 10^−7 M was more than 60% or the value of IC50 was more than 200 nM.).
